Results published in a melting point compilation (Tetko et al.; mined from patent text by program, amines drawn as free bases though some values may be those of a salt).

melting point [°C]	Compound
91 to 92	Cc1cc(C2OC(C)(C)N=C2c2ccccc2)cc(C)c1N(C)C (centres undefined)
166 to 168	COc1cc(C(=O)NS(=O)(=O)c2ccccc2C)ccc1Cc1cccc2ccc(CCCC(=O)N(C)C)cc12
253 to 255	CN1C(=O)CN(N=Cc2ccccc2)C1=O
116 to 121	Nc1ccc(OC(=O)C2CCCCC2)c(C(=O)O)c1
203 to 204	CC(C)(Cc1c2c(nn1CCO)c(N)nc1ccccc12)NS(C)(=O)=O
248	O=C(N[C@H]1CC[C@H](CCN2CCC(c3cccc4c3CCO4)CC2)CC1)c1ccc(N2CCCCC2)cc1
210 to 212	COc1ccc(Oc2cccc(C3C4=C(CC(C)(C)CC4=O)NC4=C3C(=O)CC(C)(C)C4)c2)cc1
131 to 134	NC(Cc1ccccc1-c1ccc(C(=O)N2Cc3ccc(C(=O)NCc4cccnc4)n3Cc3ccccc32)cc1)=NO
153 to 154	CC1COc2cc(Oc3ccc(NC(=O)N(C)C)cn3)ccc21 (centres undefined)
245	Nc1ccc(Nc2c(CC3CC4C=CC3C4)cc(C(=O)O)cc2S(N)(=O)=O)cc1 (centres undefined)
228 to 229	CC(C)(N)c1ccc(-c2nc(Nc3ccc(F)cc3)ncc2C#N)cc1
251 to 252	NS(=O)(=O)c1ccc(-c2oc3c(Cl)ccc(O)c3c(=O)c2-c2ccc(F)cc2)cc1
159 to 160	Cc1sc(-c2ccccc2)nc1CCOc1cc(COc2ccccc2CC(=O)O)on1
107	CCOC(=O)c1cc2sc(C3CCC(c4c(F)cccc4F)=N3)cc2s1 (centres undefined)
230 to 232	CC(C)(C)C(=O)OCC(COC(=O)C(C)(C)C)OCn1cnc2c(=O)[nH]c(N)nc21
124 to 125	CCOc1ccc(C2=NN(C(=O)c3cccnc3)CC2)cc1
164 to 168	COc1cc(-n2nc(C)[nH]c2=O)ccc1C
87 to 89	COC(=O)C=C1C=C(C(C)(C)C)C(=O)C(C(C)(C)C)=C1
138 to 140	CCC1(CCCCN2CCc3sccc3C2)C(=O)Nc2ccc(C)cc21 (centres undefined)
111 to 113	CCC(=O)NCCC1CCc2ccc3nc(C)oc3c21 (centres undefined)
203 to 205	CCc1sc2c(c1C)c(=O)c1cccc(C(=O)O)c1n2Cc1ccc(-c2ccccc2C#N)cc1

melting point [°C]	Compound
129 to 132	O=C(NCCO)c1cc2c(Oc3ccc(Cl)cc3)cnc(Cl)c2s1
131 to 133	Cc1ccccc1C(=O)N(CN(C)C)c1ccc(C(=O)N2Cc3ccccc3Cc3ccccc32)cc1
89 to 90	COc1c(-c2cc3c(s2)CCC(C)(C)C3N=[N+]=[N-])ccc2c(=O)c(C(=O)O)cn(C3CC3)c12 (centres undefined)
231	N#Cc1c(N2CCN(C(=O)c3cccs3)CC2)c2cccnc2n(Cc2cccc(F)c2)c1=O
184 to 185	CCOC(=O)C(C)(C)n1c(=O)[nH]c2ccc([N+](=O)[O-])cc2c1=O
178 to 180	Cc1cccc2c(C(=O)O)c(O)c(-c3ccc(-c4ccccc4)cc3)nc12
108 to 110	O=C(c1ccc(F)cc1)N1CCC[C@H](c2noc(-c3ccc(F)cn3)n2)C1
79	CC1(C)Cc2c(cc(C(C)(C)C)c(O)c2C(C)(C)C)S1
171 to 173	COc1ccc(S(=O)(=O)N2c3ccccc3-c3ccccc3C2C)cc1C (centres undefined)
69 to 73	O=Cc1ccc(Oc2ccc(F)cc2)cc1
216 to 218	CN1CCN(c2cccc(Nc3nc4c(-c5cnn(-c6ccc(F)cc6)c5)cccn4n3)c2)CC1
242 to 244	CCN1CCC(c2nc(-c3ccncc3)c(-c3ccc(F)cc3)[nH]2)CC1
205	COc1c(-c2ccccc2)c(C(=O)c2ccc(O)c(Br)c2)n2ccccc12
157 to 160	CC(=O)Nc1cc(Br)ccc1S(C)(=O)=O
141	CN(C(=O)N[C@@H](Cc1ccc(Nc2nccc3cnccc23)cc1)C(=O)O)c1ccccc1Cc1ccccc1
107 to 108	COc1cn(C)c(=O)c(OS(=O)(=O)C(F)(F)F)n1
239 to 240	O=C(O)c1cc(NS(=O)(=O)c2ccc([N+](=O)[O-])cc2)ccc1O
83 to 84	COC(=O)c1c(Cl)cc(Cl)cc1NC(=O)C(C)c1ccccc1 (centres undefined)
113 to 115	O=C(C=Cc1cccc(Oc2ccccc2)c1)NCCCCCC(=O)NO
58 to 59	CCOC(=O)c1ccccc1C(=O)c1ccc2c(c1)C(C)(C)CCC2(C)C
150	CCCCC1CCc2cc(C(=O)C(C)C)cc3c(CCN4CCN(c5cc(C)ccn5)CC4)c(C)n1c23 (centres undefined)

melting point [°C]	Compound
163 to 165	O=C1c2ccccc2C(=O)N1OCc1c[nH]cn1
78	C(=C\c1cccs1)/c1ncon1
181	CCC(C)COc1ccc(-c2ccc(O)cc2)cc1C#N (centres undefined)
71 to 73	COC(=O)CNc1ccc(F)c(F)c1
101	CCOC(=O)N1CCN(C(c2ccccc2)c2ccccc2)CC1(C)Cc1ccc(OC)c(OC)c1 (centres undefined)
148 to 150	Cc1ccc(C)c(CN2C(=O)c3ccccc3C2=O)c1
160 to 164	FC1(F)N=c2cc3c(cc2=N1)OC(Br)O3
142 to 143	Cc1oc(-c2ccccc2)nc1COc1ccc(CCc2oc(-c3ccccc3)nc2CO)cc1
165 to 167	Cn1c(=O)c2c(nc(Cl)n2Cc2ccccc2Br)n(C)c1=O
144 to 147	Oc1c(Cl)cc(Cl)c2cc(Cl)cnc12
280 to 281	CC(=O)Nc1nc(-c2ccc(C(C)(C)C)cc2)c(-c2ccncc2)s1
100 to 102	CCC(C)CCOc1c(-c2ccc(S(C)(=O)=O)cc2)cnn(-c2ccc(F)c(F)c2)c1=O (centres undefined)
216 to 218	CN(c1cccc2cc(C3=NCC(CC(N)=O)S3)[nH]c12)S(=O)(=O)c1nccs1 (centres undefined)
104 to 105	N#CCCCCc1csc(NC(=N)N)n1
> 250	O=C(O)Cn1c(=O)c(=O)[nH]c2ccc3ccc(-n4ccc(CN5CC=C(c6ccccc6)CC5)c4)cc3c21
60 to 64	CCc1nn(C2CCCC2)c2cc(-c3cccs3)ccc12
150 to 152	COc1ccc(CNC(=O)c2cc([N+](=O)[O-])ccc2N[C@@H](CO)CCSC)cc1OC
201 to 202	CCCCCCOc1ccc(-n2c(-c3ccc(Br)cc3)ccc2-c2ccc(Br)cc2)cc1
55 to 58	OCC(O)Cc1cccc(Cc2ccccc2)c1OCc1ccccc1 (centres undefined)
80 to 82	CC(C)c1csc(CO)n1
145 to 146	Clc1ccc(N2CCN(Cc3cn4cc(Cl)ccc4n3)CC2)cc1

Compound	melting point [°C]
CCOP(=S)(OCC)SC(=CC(=O)c1cccc(Br)c1)C(=O)O	107 to 111
CN1Cc2c(C#N)ncn2-c2ccccc2C1=O	184 to 186
NC(=NCCCc1ccccn1)NCCCc1c[nH]cn1	85 to 86
Cc1cc(-c2nc3ccccc3c(=O)n2-c2ccc(F)cc2)cc(C)c1OCCO	95 to 97
CC(C)(C)C(=O)OC1CCC2(C)C(=CC(O)C3C2CCC2(C)C(=O)CC(OC(=O)C(C)(C)C)C32)C1 (centres undefined)	195 to 197
CC(C)n1cc2c3c(cccc31)C1CC(C(=O)NC3CCCCC3)CN(C)C1C2 (centres undefined)	> 250
